Experimental data published in US20110046046A1, “PROPHYLACTIC OR THERAPEUTIC COMPOSITION FOR DIABETES OR OBESITY” (priority 2008, published 2011).
*1 amine or outer side, *2 acyl side, *3 side chain or, on linkers, in order; H or OH if unused. Where no end group is shown, it is not given here. [ ]: non-standard residue; d: D form. γGlu = O=C(O)[C@H](CCC(=O)[*:2])N[*:1]; Met(O) = CS(=O)CC[C@H](N)C(=O)O

Legend:
[1] = test system: GLP-1-producing cell strain GLUTag; test: Function to promote secretion of GLP-1 from GLUTag cells; type: cell-based, mouse; settings: incubation 37° C. for 60 minutes, GLP-1 in supernatant by Enzyme immuno assay, vs Hepes B buffer control, FIGS. 2 and 3
Experimental: A GLP-1-producing cell strain GLUTag derived from the mouse large intestine was cultured in a Dulbecco's modified Eagle's medium supplemented with 10% FBS at 37° C. in the presence of 5% CO2. The GLUTag cells were cultured in a 48-well plate for 2 to 3 days until the cells reached a subconfluent state. Prior to the addition of each of samples, the wells were washed with a Hepes B buffer (140 mM NaCl, 4.5 mM KCl, 20 mM Hepes, 1.2 mM CaCl2, 1.2 mM MgCl2, 10 mM D-glucose, 0.1% BSA, pH 7.4), 80 μl of a sample solution obtained by dissolving each of the samples in the same buffer were added to the wells, and incubation was performed at 37° C. for 60 minutes. γ-Glu-Cys-Gly and cinacalcet were used as the samples. Further, the Hepes B buffer was used as a control. After supernatant collection, the cells were precipitated by centrifugation (800×g, 5 minutes, 4° C.), and 70 μl of the supernatant were collected and cryopreserved. The concentration of GLP-1 in the supernatant was measured with a commercially available Enzyme immuno assay kit (Yanaihara Institute Inc.).
In the same manner as in Example 2, a function to promote the secretion of GLP-1 was examined using a GLP-1-producing cell strain GLUTag. γ-Glu-Cys and protamine were used as samples.

[2] = test system: CCK-producing cell strain STC-1; test: Function to promote secretion of CCK from STC-1 cells; type: cell-based, mouse; settings: incubation 37° C. for 60 minutes, CCK in supernatant by Enzyme immuno assay, vs Hepes B buffer control, FIG. 1
Experimental: A CCK-producing cell strain STC-1 derived from the mouse small intestine was cultured in a Dulbecco's modified Eagle's medium supplemented with 10% FBS at 37° C. in the presence of 5% CO2. The STC-1 cells were cultured in a 48-well plate for 2 to 3 days until the cells reached a subconfluent state. Prior to the addition of each of the samples, the wells were washed with a Hepes B buffer (140 mM NaCl, 4.5 mM KCl, 20 mM Hepes, 1.2 mM CaCl2, 1.2 mM MgCl2, 10 mM D-glucose, 0.1% BSA, pH 7.4), […] of a sample solution obtained by dissolving each of the samples in the same buffer were added to the wells, and incubation was performed at 37° C. for 60 minutes. γ-Glu-Cys-Gly (Sigma-Aldrich Japan K.K.), γ-Glu-Val-Gly, and cinacalcet were used as the samples. Further, the Hepes B buffer was used as a control. After supernatant collection, the cells were precipitated by centrifugation (800×g, 5 minutes, 4° C.), and 80 μl of the supernatant were collected and cryopreserved.
After the supernatant had been pretreated with an OASIS cartridge (C18), the concentration of CCK in the supernatant was measured with an Enzyme immuno assay kit (Phoenix Pharmaceuticals).

[3] = test system: calcium receptor; settings: shown in WO 2007/055388, WO 2007/055393, WO 2008/139945-7; J. Biol. Chem. 2006; cited from earlier work
[4] = test system: male SD rats; test: GLP-1 secretion test in rats (ligated ileal loop); type: in vivo; settings: rat, 20 mg/2 mL deionized water into ligated ileum loop, ileal mesenteric vein blood 30-120 minutes, compared to water administration group; FIG. 4
Experimental: After male SD rats (8-week-old) had been preliminarily fed, fasted overnight, and subjected to celiotomy under ketamine/xylazine anesthesia. GLP-1-producing cells are mainly distributed in an ileal site. Thus, after a ligated ileal loop (30 cm) had been prepared, a catheter was placed into the ileal mesenteric vein, and blood was collected from the catheter at the time of 0 minute (0 time). A sample (2 mL of deionized water, 20 mg of γ-Glu-Cys/2 mL of deionized water) was administered into the ligated ileum loop, blood was collected at 30, 60, 90, and 120 minutes after administration, respectively, and the plasma GLP-1 concentration was measured with an Enzyme immuno assay kit (manufactured by Yanaihara Institute Inc.).

[5] = test system: male SD rats; test: Oral glucose tolerance test in rats; type: in vivo; settings: rat, oral 160 mg/kg with glucose 2 g/kg, at 15 and 30 minutes after glucose administration, compared to glucose solution alone; FIG. 5
Experimental: After male SD rats (7-week-old) had been preliminarily fed (for 3 to 4 days), and fasted overnight, they were subjected to an oral glucose tolerance test. Tail vein blood before specimen administration was collected, and a sample [glucose solution alone (2 g/kg weight)/glucose solution comprising γ-Glu-Cys (160 mg/kg weight)] was orally administered with a feeding tube. After sample administration, tail vein blood was collected at 15, 30, 60, 90, and 120 minutes, and the plasma glucose concentration was measured with a commercially available kit (manufactured by Wako Pure Chemical Industries, Ltd.).

Row | Compound | calcium receptor activation [3] | other results
1 | C[C@@H](NCCCc1cccc(C(F)(F)F)c1)c1cccc2ccccc12 [cinacalcet, (R)-N-(3-(3-(trifluoromethyl)phenyl)propyl)-1-(1-naphthyl)ethylamine, reference compound] |  | promotion of secretion of GLP-1 [1]: functioned to promote the secretion of GLP-1; promotion of secretion of CCK [2]: functioned to promote the secretion of CCK
2 | N[C@@H](CCC(=O)N[C@@H](CS)C(=O)NCC(=O)O)C(=O)O [γ-Glu-Cys-Gly] | is a calcium receptor activator | promotion of secretion of GLP-1 [1]: functioned to promote the secretion of GLP-1; promotion of secretion of CCK [2]: functioned to promote the secretion of CCK
3 | Asp-Gly | activate a calcium receptor | 
4 | Cys-Gly | activate a calcium receptor | 
5 | Cys-Met | activate a calcium receptor | 
6 | Glu-Cys | activate a calcium receptor | 
7 | Gly-Cys | activate a calcium receptor | 
8 | Leu-Asp | activate a calcium receptor | 
9 | [γGlu]-Ala | activate a calcium receptor | 
10 | [γGlu]-Cys | activate a calcium receptor | plasma GLP-1 concentration [4]: significantly higher elevation of plasma GLP-1 concentration; promotion of secretion of GLP-1 [1]: functioned to promote the secretion of GLP-1; blood glucose concentration [5]: significantly lower blood glucose concentration value
11 | [γGlu]-Gly | activate a calcium receptor | 
12 | [γGlu]-Ile | activate a calcium receptor | 
13 | [γGlu]-Leu | activate a calcium receptor | 
14 | [γGlu]-Met | activate a calcium receptor | 
15 | [γGlu]-Ser | activate a calcium receptor | 
16 | [γGlu]-Thr | activate a calcium receptor | 
17 | [γGlu]-Val | activate a calcium receptor | 
18 | [γGlu]-Val-Gly |  | promotion of secretion of CCK [2]: functioned to promote the secretion of CCK
19 | [γGlu]-Val-NH2 | activate a calcium receptor | 
20 | [γGlu]-[Met(O)] | activate a calcium receptor | 
21 | [γGlu]-[γGlu]-Val | activate a calcium receptor | 
22 | protamine |  | promotion of secretion of GLP-1 [1]: functioned to promote the secretion of GLP-1
23 | γ-Glu-Cys(S-Me) | activate a calcium receptor | 
24 | γ-Glu-Cys(S-Me)(O) | activate a calcium receptor | 
25 | γ-Glu-Orn | activate a calcium receptor | 
26 | γ-Glu-Tau | activate a calcium receptor | 
27 | γ-Glu-Val-ol | activate a calcium receptor | 
28 | γ-Glu-t-Leu | activate a calcium receptor | 
